Experiments:
[1] = Inhibition of TNF-induced NF-kappaB activation in human A549 cells after 15 hrs; conditions: for pIC50: a549; for IC50: Homo sapiens, A549, 15 h, read-out: pIC50 (converted)
[2] = target: T1, Glucocorticoid receptor (Homo sapiens, UniProt P04150)
T1 sequence (P04150 whole entry): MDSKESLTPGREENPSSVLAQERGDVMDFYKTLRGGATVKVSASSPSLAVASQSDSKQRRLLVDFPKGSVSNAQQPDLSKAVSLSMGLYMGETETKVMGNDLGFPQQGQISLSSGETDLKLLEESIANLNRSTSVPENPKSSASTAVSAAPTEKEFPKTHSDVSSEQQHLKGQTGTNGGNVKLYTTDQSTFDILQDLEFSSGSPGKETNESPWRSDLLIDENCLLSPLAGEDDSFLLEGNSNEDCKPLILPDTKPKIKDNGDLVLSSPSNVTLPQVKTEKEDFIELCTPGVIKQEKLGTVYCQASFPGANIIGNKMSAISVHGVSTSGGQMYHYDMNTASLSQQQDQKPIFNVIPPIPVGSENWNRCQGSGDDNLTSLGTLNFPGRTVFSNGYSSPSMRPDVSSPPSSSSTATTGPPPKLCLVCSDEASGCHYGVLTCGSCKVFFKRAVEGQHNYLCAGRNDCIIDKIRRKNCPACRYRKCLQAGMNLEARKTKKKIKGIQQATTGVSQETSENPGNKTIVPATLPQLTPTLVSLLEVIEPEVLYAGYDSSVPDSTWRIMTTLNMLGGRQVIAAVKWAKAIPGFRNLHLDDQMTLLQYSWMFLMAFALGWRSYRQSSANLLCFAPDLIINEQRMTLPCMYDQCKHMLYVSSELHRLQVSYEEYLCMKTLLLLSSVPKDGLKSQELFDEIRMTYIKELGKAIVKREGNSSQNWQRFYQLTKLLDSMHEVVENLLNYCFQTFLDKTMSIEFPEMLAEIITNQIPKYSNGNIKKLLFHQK
Description: Displacement of fluorescent labelled Dexamethasone from glucocorticoid receptor

[3] = target: T1, Glucocorticoid receptor; remark: listed apart in the source
Description: Agonist activity at human glucocorticoid receptor in human A549 cells assessed as transcriptional activity by MMTV luciferase reporter gene assay

[4] = test system: A549; assay: Inhibition of TNF-induced NFkappaB activation in human A549 cells after 15 hrs relative to Dexamethasone; type: cell-based; parameters: scale not given: the % may be the effect or the level left
[5] = target: T2, Cytochrome P450 1A2 (Homo sapiens, UniProt P05177); assay: Inhibition of CYP1A2; type: ADME
T2 sequence (P05177 whole entry): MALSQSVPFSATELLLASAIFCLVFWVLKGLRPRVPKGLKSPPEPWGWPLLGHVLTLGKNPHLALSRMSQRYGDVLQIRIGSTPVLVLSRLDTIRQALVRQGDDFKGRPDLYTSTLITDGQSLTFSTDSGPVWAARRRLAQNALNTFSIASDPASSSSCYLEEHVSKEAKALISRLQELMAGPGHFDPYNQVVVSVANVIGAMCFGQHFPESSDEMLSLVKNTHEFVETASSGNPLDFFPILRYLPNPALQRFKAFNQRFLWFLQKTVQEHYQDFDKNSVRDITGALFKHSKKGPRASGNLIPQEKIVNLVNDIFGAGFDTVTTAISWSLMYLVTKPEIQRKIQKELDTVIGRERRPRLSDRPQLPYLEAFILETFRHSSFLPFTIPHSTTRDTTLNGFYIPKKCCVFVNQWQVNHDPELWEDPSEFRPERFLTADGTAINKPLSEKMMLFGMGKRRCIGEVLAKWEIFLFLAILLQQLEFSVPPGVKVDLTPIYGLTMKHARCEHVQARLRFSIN

[6] = target: Cytochrome P450 2C19 (Homo sapiens, UniProt P33261); assay: Inhibition of CYP2C19; type: ADME
Cytochrome P450 2C19, sequence (P33261 whole entry): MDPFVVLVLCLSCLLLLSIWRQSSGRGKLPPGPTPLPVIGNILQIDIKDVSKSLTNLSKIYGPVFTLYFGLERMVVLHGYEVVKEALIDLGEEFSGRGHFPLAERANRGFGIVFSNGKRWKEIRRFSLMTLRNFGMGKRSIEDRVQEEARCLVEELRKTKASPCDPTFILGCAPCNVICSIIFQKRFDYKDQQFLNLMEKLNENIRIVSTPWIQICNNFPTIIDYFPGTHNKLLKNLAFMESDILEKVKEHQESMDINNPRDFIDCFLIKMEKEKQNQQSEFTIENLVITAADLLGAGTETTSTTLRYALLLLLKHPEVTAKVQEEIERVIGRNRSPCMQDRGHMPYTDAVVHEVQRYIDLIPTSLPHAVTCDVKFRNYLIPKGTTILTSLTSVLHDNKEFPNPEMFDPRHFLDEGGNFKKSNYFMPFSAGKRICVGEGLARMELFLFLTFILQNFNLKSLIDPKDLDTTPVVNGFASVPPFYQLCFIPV

[7] = target: Cytochrome P450 2C9 (Homo sapiens, UniProt P11712); assay: Inhibition of CYP2C9; type: ADME
Cytochrome P450 2C9, sequence (P11712 whole entry): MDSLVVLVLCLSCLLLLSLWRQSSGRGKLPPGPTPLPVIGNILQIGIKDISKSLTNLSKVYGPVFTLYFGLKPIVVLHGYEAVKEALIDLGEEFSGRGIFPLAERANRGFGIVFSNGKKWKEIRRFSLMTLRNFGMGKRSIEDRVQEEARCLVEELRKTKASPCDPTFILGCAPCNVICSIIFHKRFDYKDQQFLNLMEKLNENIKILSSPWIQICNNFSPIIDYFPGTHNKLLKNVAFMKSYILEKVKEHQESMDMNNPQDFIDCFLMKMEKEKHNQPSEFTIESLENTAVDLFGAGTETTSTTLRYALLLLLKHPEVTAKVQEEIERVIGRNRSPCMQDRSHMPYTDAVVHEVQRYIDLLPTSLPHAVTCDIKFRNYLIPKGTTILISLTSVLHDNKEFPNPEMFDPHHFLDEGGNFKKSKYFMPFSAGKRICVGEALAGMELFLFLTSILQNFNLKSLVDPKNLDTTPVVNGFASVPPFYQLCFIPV

[8] = target: Cytochrome P450 2D6 (Homo sapiens, UniProt P10635); assay: Inhibition of CYP2D6; type: ADME
Cytochrome P450 2D6, sequence (P10635 whole entry): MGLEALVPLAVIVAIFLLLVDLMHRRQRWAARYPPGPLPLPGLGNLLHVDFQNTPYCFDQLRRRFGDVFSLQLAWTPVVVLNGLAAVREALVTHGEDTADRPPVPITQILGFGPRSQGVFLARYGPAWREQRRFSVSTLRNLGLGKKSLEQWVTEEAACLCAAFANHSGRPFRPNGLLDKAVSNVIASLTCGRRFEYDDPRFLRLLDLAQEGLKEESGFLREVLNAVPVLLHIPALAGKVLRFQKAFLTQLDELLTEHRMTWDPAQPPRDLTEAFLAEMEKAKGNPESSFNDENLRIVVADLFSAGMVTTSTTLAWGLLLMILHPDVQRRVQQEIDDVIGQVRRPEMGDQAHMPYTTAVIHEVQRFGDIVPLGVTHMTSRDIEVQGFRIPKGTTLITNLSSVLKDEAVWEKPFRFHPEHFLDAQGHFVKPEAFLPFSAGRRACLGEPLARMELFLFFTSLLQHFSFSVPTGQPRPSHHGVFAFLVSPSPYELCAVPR

[9] = target: Cytochrome P450 3A4 (Homo sapiens, UniProt P08684)
Cytochrome P450 3A4, sequence (P08684 whole entry): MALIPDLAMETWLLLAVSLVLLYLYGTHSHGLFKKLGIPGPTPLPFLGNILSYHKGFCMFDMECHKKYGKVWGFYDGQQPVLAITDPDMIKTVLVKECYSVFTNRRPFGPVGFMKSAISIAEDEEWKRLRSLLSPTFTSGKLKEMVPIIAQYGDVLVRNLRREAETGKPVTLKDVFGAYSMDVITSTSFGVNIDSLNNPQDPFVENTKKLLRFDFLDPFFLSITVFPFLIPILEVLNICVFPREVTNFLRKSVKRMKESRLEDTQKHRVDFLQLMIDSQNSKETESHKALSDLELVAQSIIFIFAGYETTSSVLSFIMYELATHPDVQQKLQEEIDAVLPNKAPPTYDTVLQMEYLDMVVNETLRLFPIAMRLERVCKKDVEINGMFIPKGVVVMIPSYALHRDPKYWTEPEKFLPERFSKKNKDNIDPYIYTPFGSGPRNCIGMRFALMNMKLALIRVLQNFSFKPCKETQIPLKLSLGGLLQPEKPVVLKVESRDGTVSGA

[10] = Clearance in Sprague-Dawley rat at 1 mg/kg, iv and 1 mg/kg, po; type: ADME, organism-based; conditions: in vivo
[11] = Volume of distribution at steady state in Sprague-Dawley rat at 1 mg/kg, iv and 1 mg/kg, po; type: ADME, organism-based; conditions: in vivo, read-out: Vdss
[12] = Oral bioavailability in Sprague-Dawley rat at 1 mg/kg; type: ADME, organism-based; conditions: in vivo

SMILES	IC50 [2] [nM]	EC50 [3] [nM]	IC50 [1] [nM]	Activity [4] [%]	also measured
CCN(CC(O)(CNC(=O)c1cnn(-c2ccc(F)cc2)c1N)C(F)(F)F)C(=O)c1ccccc1Cl (stereo in doubt; 13d) [listing 1 of 2 here]	–	–	–	95	–
CN(CC(O)(CNC(=O)c1cnn(-c2ccc(F)cc2)c1N)C(F)(F)F)C(=O)c1c(F)cccc1F (racemic)	79.4	251	50.1	95	IC50 [5]: 100000 nM; IC50 [6]: 49000 nM; IC50 [7]: 10000 nM; IC50 [8]: 36000 nM; IC50 [9]: 100000 nM
CCN(CC(O)(CNC(=O)c1cnn(-c2ccc(F)cc2)c1N)C(F)(F)F)C(=O)c1cccnc1Cl (racemic)	39.8	794	251	75	–
CCN(CC(O)(CNC(=O)c1cnn(-c2ccc(F)cc2)c1N)C(F)(F)F)C(=O)c1ncccc1Cl (racemic)	–	–	–	–	clearance [10]: 23 mL/min/kg; Vd [11]: 2.8 L/kg; bioavailability [12]: 48%
CCN(CC(O)(CNC(=O)c1cnn(-c2ccc(F)cc2)c1N)C(F)(F)F)C(=O)c1ccccc1S(C)(=O)=O (racemic)	–	–	–	–	clearance [10]: 17 mL/min/kg; Vd [11]: 3.6 L/kg; bioavailability [12]: 77%
CCN(CC(O)(CNC(=O)c1cnn(-c2ccc(F)cc2)c1N)C(F)(F)F)C(=O)c1ccc2[nH]ccc2c1 (stereo not given)	6.31	3.16	1	100	–
CCN(CC(O)(CNC(=O)c1cnn(-c2ccc(F)cc2)c1N)C(F)(F)F)C(=O)c1ncccc1Cl (stereo not given)	–	–	–	99	–
CCN(CC(O)(CNC(=O)c1cnn(-c2ccc(F)cc2)c1N)C(F)(F)F)C(=O)c1ccccc1Cl (stereo in doubt; 13d) [listing 2 of 2 here]	–	–	–	–	IC50 [5]: 100000 nM; IC50 [6]: 8000 nM; IC50 [7]: 4000 nM; IC50 [8]: 27000 nM; IC50 [9]: 2000 nM
C[C@]12C=CC(=O)C=C1CC[C@@H]1[C@@H]2[C@@H](O)C[C@@]2(C)[C@H]1CC[C@]2(O)C(=O)CO [PREDNISOLONE]	–	–	10	100	–
CCN(CC(O)(CNC(=O)c1cnn(-c2ccc(F)cc2)c1N)C(F)(F)F)C(=O)c1ccccc1 (stereo in doubt; 13c) [listing 2 of 2 here]	–	–	–	94	–

Further lines, with some results ahead:

IC50 [2] [nM]	EC50 [3] [nM]	IC50 [1] [nM]	SMILES	Activity [4] [%]	also measured
126	> 6310	–	CCN(CC(O)(CNC(=O)c1cnn(-c2ccc(F)cc2)c1N)C(F)(F)F)C(=O)c1ccccc1 (stereo in doubt; 13b)	–	pIC50 [1]: < 5
7.94	50.1	20	CCN(CC(O)(CNC(=O)c1cnn(-c2ccc(F)cc2)c1N)C(F)(F)F)C(=O)c1cccc(F)c1Cl (racemic)	92	–
50.1	25.1	10	CCN(CC(O)(CNC(=O)c1cnn(-c2ccc(F)cc2)c1N)C(F)(F)F)C(=O)c1c(F)cccc1S(C)(=O)=O (racemic)	103	clearance [10]: 9 mL/min/kg; Vd [11]: 2.6 L/kg; bioavailability [12]: 62%
50.1	50.1	–	CCN(CC(O)(CNC(=O)c1cnn(-c2ccc(F)cc2)c1N)C(F)(F)F)C(=O)c1ccccc1 (racemic)	–	pIC50 [1]: 7.3; clearance [10]: 21 mL/min/kg; Vd [11]: 2.5 L/kg; bioavailability [12]: 12%
12.6	25.1	–	CCN(CC(O)(CNC(=O)c1cnn(-c2ccc(F)cc2)c1N)C(F)(F)F)C(=O)c1ccccc1 (stereo in doubt; 13c) [listing 1 of 2 here]	–	pIC50 [1]: 8
15.8	251	31.6	CCN(CC(O)(CNC(=O)c1cnn(-c2ccc(F)cc2)c1N)C(F)(F)F)C(=O)c1cccc(Cl)c1 (racemic)	96	–

— ChEMBL document CHEMBL1139273, “Aryl aminopyrazole benzamides as oral non-steroidal selective glucocorticoid receptor agonists” (Bioorg Med Chem Lett, 2009)
